According to patent publication US11207289B2, “Use of benzofuran lignans to induce IL-25 expression and suppress mammary tumor metastasis” (ACADEMIA SINICA, priority 2016, dated 2021):

How the values were obtained:
IL-25 = IL-25 expression in lung fibroblasts, 4T1 tumor resection model (IF staining, flow cytometry); format: in vivo, mice
Method: (§1) BALB/c mice were subcutaneously injected with 4T1-Luc2 cells (5×10^5/100 μl PBS/mouse) into the fourth mammary fat pad under isoflurane anesthesia. Tumor growth was monitored by measuring the tumor volume according to the formula: volume=length×(width)^2/2. After tumors were established (180-200 mm^3) on day 14, test mice were divided into different groups (8 mice/group) and subjected to different treatments. At 15 days post tumor cell implantation, primary 4T1 tumors in situ were surgically removed by a tumor resection process. For drug treatment, mice were administered with different agents, including vehicle-control (PBS), mouse IL-25 protein (10 μg/kg, ProSpec, Vineland, N.J.), Q2-3 (2, 20 or 100 μg/kg) or docetaxel (2 mg/kg; Sigma-Aldrich), by intravenous injection for 3 weeks (3 injections/week) post tumor resection. For in vivo neutralization of mouse IL-25 activity, mice were treated intraperitoneally with either 100 μg anti-mouse IL-25 (IL-17E) antibody (clone 35B; Biolegend) or isotype control rat IgG (100 μg; rat, IgG1κ; Biolegend) at days 0, 3, 6, 9, 12, 15, 18 post tumor resection. To detect metastasis of human MDA-MD-231-Luc2 tumor cells, nude mice were injected subcutaneously with 5×10^5 MDA-MD-231-Luc2 cells into the mammary fat pad under isoflurane anesthesia. After tumors were established (250-350 mm^3) on day 24, test mice were divided into different groups (8 mice/group) and subjected to different treatments. At 25 days post tumor cell implantation, primary MDA-MD-231-Luc2 tumors in situ were surgically removed by a tumor resection process. For drug treatment, mice were administered with PBS (vehicle-control), Q2-3 (100 μg/kg), docetaxel (5 mg/kg) or Q2-3 (100 μg/kg)+docetaxel (5 mg/kg), by intravenous injection for 3 weeks (3 injections/week) post tumor resection. To monitor the progression of mouse (4T1) or human (MDA-MD-231) metastatic tumors, test mice treated with different drugs/agents were compared for their tumor metastatic activity and survival rate aftern another 8 weeks. Bioluminescence signals from the 4T1-luc2 tumor cells in test mice were analyzed using a non-invasive IVIS imaging system (Calipers, Hopkinton, Mass.) after intraperitoneal injection of 150 mg/kg D-luciferin (NanoLight technology, Pinetop, Ariz.).
Lung tissue specimens obtained from each tumor-resected mouse were fixed with 4% formalin and embedded in paraffin. For histological comparison, 6 μm-thick tissue sections were made and stained with hematoxylin and eosin (H&E). For immunofluorescence staining, fixed tissue sections were initially immersed in boiling sodium citrate buffer (0.01 M sodium citrate buffer, pH 6.0) for 30 min Lung tissue sections were blocked with 5% nonfat milk, and incubated with anti-FSP-1 antibody (1:200 dilution; Millipore), FITC-conjugated anti-CD206 antibody (1:200 dilution; Biolegend) or PE-conjugated anti-IL-25 antibody (1:100; R&D) in 1% nonfat milk for 1 hour at room temperature. Sections were then washed with PBS containing 0.1% Tween 20. To detect primary antibodies, some sections were incubated with FITC-conjugated anti-mouse-IgG (1:200; Jackson Immunoresearch, West Grove, Pa.) for FSP-1. 4′,6-Diamidino-2-phenylindole dihydrochloride (1 μg/ml; Sigma-Aldrich) was used to stain the nuclei. Fluorescence microscopy evaluation of immunostained tissue sections was performed using a Zeiss Axiovert 200 M microscope (Carl Zeiss, Heidelberg, Germany) Images were captured with a digital camera (Orca ER, Hamamatsu) and processed using Axiovision 4.6.3 (Carl Zeiss).
For detection of myeloid derived suppressor cells (MDSCs), cells from mouse lung tissue in each group were collected and stained for 30 min at 4° C. with antibodies against specific cell markers, including FITC-conjugated anti-mouse CD11b (for cell surface), APC-Cy7 conjugated anti-mouse Ly-6C and PE conjugated anti-mouse Ly-6G, (both for intracellular staining). All three antibodies were obtained from Biolegend, (San Diego, Calif.). […]

Jurkat cells = conditions: cited from earlier work
4T1-Luc2 cells = test: 4T1-Luc2 mammary carcinoma tumor resection model: metastasis and survival; format: in vivo, BALB/c mice
Method: as §1, with “[…]; […]),” for “20 or 100 μg/kg) or docetaxel (2 mg/kg; Sigma-Aldrich),”, “For drug treatment, mice were administered with PBS (vehicle-control), Q2-3 (100 μg/kg), docetaxel (5 mg/kg) or Q2-3 (100 μg/kg)+docetaxel (5 mg/kg), by intravenous injection for 3 weeks (3 injections/week) post tumor resection. To monitor the progression of mouse (4T1) or human (MDA-MD-231) metastatic tumors, test mice treated with different drugs/agents were compared for their tumor metastatic activity and survival rate aftern another 8 weeks.” left out
Statistical analysis was performed using an unpaired, two-tailed Student's t-test. […] Differences in tumor metastasis or mouse survival rate were determined by a log-rank (Mantel-Cox) test of the Kaplan-Meier curves. […]

K562 cells = conditions: cited from earlier work

Structure (SMILES): COC(=O)/C=C/c1cc(O)c2c(c1)C(C(=O)OC)C(c1ccc(O)c(O)c1)O2 (stereo not drawn) [Q2-3, methyl(E)-3-[2-(3,4-dihydroxyphenyl)-7-hydroxy-3-methoxycarbonyl-2,3-dihydro-1-benzofuran-5yl]-prop-2-enoate]
- total FSP-1+ER-TR7+ fibroblast population in lung (IL-25; 3 weeks post tumor resection, PBS control 5.2%): 7.3%
- cell population of IL-25+ fibroblasts (FSP-1+ER-TR7+IL-25+ cells) in lung (IL-25; 3 weeks post tumor resection, PBS control 16.7%): 79.5%
- IL-25 expression in lung fibroblasts (IF staining) (IL-25; Q2-3 100 μg/kg, 21 days post tumor resection): readily detectable stimulatory effect
- increase in FSP-1+IL-25+ fibroblast population in spleen or other tissues (IL-25; data not shown): not detected
- anti-proliferation effect (Jurkat cells): significant anti-proliferation effect
- survival rate of tumor-resected mice (4T1-Luc2 cells; 4T1 tumor resection model): significantly increased
- metastasis of 4T1 cells to the lung (luminescent activity) (4T1-Luc2 cells; ≥20 μg/kg i.v., 3 injections/week for 3 weeks post tumor resection): significantly suppress
- anti-metastatic activity compared with doxorubicin (2 mg/kg) (4T1-Luc2 cells; ≥20 μg/kg, luciferase activity): much higher anti-metastatic activity than treatment with doxorubicin
- anti-proliferation effect (K562 cells): significant anti-proliferation effect
